Test results taken from ChEMBL document CHEMBL3813616, “Discovery of novel 7-azaindoles as PDK1 inhibitors” (Bioorg Med Chem Lett, 2016).

Assays:
[1] = molecular target: T1, Inhibitor of nuclear factor kappa-B kinase subunit epsilon (Homo sapiens) (UniProt Q14164); assay: Inhibition of human IKBKE (1 to 716 residues) assessed as enzyme activity at 1 uM using 33P ATP by radioactive filter binding assay; design: scale not given: the % may be the effect or the level left
T1 sequence (whole entry): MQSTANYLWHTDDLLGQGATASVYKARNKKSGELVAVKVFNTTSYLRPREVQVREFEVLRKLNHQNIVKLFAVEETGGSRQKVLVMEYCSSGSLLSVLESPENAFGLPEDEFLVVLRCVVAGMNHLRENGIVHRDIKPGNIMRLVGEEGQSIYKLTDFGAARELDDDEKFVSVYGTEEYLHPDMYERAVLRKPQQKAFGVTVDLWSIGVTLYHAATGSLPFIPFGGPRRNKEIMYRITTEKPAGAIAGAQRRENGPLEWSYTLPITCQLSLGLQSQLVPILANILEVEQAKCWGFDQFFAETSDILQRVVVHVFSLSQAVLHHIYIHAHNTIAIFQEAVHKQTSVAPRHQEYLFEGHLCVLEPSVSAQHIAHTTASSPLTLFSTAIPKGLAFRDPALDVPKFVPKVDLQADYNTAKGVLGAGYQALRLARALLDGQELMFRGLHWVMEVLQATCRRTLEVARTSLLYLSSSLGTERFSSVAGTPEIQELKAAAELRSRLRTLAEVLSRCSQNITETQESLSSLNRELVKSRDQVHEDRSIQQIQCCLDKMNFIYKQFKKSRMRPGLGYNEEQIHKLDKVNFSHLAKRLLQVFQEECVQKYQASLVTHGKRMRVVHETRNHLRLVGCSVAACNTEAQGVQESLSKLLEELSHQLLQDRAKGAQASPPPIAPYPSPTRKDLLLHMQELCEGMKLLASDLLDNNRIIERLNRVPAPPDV

[2] = molecular target: Dual specificity tyrosine-phosphorylation-regulated kinase 1A (Homo sapiens) (UniProt Q13627); assay: Inhibition of human DYRK1A (1 to 502 residues) assessed as enzyme activity at 1 uM using 33P ATP by radioactive filter binding assay; design: scale not given: the % may be the effect or the level left
[3] = molecular target: AMP-activated protein kinase, AMPK (Homo sapiens) (UniProt P54646+O43741+P54619+Q9UGJ0+Q9Y478+Q13131+Q9UGI9); assay: Inhibition of human AMPK assessed as enzyme activity at 1 uM using 33P ATP by radioactive filter binding assay; type: protein-complex assay; design: scale not given: the % may be the effect or the level left
[4] = molecular target: T2, Inhibitor of nuclear factor kappa-B kinase subunit beta (Homo sapiens) (UniProt O14920); assay: Inhibition of human IKKbeta (1 to 736 residues) assessed as enzyme activity at 1 uM using 33P ATP by radioactive filter binding assay; design: scale not given: the % may be the effect or the level left
T2 sequence (whole entry): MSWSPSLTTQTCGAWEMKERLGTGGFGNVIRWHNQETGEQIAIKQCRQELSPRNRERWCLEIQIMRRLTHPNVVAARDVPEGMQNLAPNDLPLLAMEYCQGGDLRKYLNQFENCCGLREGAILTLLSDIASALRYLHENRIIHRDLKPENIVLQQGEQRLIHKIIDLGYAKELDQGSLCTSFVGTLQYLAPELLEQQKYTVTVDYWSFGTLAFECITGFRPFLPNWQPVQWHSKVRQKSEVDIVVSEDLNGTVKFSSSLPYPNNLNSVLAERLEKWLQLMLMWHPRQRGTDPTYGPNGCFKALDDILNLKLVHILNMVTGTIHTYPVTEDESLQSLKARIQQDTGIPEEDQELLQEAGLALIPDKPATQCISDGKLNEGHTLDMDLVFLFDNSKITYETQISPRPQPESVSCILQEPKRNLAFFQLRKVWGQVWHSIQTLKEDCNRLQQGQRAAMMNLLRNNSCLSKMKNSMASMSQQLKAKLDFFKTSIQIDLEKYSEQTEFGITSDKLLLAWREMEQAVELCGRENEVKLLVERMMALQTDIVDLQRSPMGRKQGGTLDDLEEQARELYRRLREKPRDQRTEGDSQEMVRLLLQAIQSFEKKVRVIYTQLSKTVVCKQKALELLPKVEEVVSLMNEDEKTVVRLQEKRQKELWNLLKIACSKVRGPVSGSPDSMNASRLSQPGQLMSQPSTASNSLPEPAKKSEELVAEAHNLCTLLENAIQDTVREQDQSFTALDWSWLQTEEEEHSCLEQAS

[5] = molecular target: T3, Protein kinase C zeta type (Homo sapiens) (UniProt Q05513); assay: Inhibition of human PKCzeta (2 to 592 residues) assessed as enzyme activity at 1 uM using 33P ATP by radioactive filter binding assay; design: scale not given: the % may be the effect or the level left
T3 sequence (whole entry): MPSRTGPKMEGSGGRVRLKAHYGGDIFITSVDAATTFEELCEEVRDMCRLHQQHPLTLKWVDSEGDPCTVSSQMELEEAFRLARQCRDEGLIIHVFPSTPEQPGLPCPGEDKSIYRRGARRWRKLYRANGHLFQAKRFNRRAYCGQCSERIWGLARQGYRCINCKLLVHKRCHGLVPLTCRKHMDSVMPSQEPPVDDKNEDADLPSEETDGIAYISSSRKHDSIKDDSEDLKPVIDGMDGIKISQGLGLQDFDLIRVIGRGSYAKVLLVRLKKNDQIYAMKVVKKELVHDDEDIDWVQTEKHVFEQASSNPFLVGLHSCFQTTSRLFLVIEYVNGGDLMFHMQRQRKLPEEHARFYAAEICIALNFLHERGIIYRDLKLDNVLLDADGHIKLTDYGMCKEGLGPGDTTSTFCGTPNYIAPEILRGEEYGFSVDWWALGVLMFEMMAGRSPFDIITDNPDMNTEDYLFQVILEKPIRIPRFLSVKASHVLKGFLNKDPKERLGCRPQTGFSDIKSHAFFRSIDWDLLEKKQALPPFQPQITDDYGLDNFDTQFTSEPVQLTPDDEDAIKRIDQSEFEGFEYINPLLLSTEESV

[6] = molecular target: Calcium/calmodulin-dependent protein kinase kinase 2 (Homo sapiens) (UniProt Q96RR4); assay: Inhibition of human CAMKKb (1 to 541 residues) assessed as enzyme activity at 1 uM using 33P ATP by radioactive filter binding assay; design: scale not given: the % may be the effect or the level left
[7] = molecular target: Ribosomal protein S6 kinase alpha-1 (Homo sapiens) (UniProt Q15418); assay: Inhibition of human MAPKAPK1alpha (1 to 735 residues) assessed as enzyme activity at 1 uM using 33P ATP by radioactive filter binding assay; design: scale not given: the % may be the effect or the level left
[8] = molecular target: Phosphatidylinositol 4,5-bisphosphate 3-kinase catalytic subunit alpha isoform (Homo sapiens, UniProt P42336); assay: Inhibition of PI3K alpha (unknown origin)
Chain of Phosphatidylinositol 4,5-bisphosphate 3-kinase catalytic subunit alpha isoform (P42336 whole entry, canonical isoform): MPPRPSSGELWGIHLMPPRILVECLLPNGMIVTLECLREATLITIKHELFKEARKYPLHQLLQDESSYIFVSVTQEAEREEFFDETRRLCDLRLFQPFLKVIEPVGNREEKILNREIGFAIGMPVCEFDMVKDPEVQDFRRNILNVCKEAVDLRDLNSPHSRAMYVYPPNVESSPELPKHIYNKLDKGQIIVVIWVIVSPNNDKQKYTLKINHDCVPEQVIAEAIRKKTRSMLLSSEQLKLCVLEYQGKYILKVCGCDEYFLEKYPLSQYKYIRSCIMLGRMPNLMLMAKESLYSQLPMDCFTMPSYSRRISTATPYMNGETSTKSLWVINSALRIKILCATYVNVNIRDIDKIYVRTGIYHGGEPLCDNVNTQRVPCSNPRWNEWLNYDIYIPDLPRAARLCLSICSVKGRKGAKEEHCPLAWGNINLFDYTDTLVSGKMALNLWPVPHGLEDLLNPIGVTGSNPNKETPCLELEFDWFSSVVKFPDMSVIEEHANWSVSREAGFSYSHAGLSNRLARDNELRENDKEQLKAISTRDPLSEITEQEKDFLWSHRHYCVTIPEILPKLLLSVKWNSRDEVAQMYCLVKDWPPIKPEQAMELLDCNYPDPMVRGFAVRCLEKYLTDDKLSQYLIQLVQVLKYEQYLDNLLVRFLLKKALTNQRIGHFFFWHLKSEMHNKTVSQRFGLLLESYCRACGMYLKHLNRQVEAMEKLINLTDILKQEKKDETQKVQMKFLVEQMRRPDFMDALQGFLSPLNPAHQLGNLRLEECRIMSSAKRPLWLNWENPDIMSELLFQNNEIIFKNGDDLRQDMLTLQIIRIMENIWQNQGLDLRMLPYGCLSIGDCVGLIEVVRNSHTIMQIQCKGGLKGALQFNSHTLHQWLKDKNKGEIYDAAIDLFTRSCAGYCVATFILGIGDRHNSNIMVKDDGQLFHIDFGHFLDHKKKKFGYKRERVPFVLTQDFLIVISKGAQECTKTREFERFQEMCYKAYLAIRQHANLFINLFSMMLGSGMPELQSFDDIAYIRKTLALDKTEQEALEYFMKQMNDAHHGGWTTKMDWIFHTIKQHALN

Chain of Calcium/calmodulin-dependent protein kinase kinase 2 (Homo sapiens) (Q96RR4 2-588 limits assumed): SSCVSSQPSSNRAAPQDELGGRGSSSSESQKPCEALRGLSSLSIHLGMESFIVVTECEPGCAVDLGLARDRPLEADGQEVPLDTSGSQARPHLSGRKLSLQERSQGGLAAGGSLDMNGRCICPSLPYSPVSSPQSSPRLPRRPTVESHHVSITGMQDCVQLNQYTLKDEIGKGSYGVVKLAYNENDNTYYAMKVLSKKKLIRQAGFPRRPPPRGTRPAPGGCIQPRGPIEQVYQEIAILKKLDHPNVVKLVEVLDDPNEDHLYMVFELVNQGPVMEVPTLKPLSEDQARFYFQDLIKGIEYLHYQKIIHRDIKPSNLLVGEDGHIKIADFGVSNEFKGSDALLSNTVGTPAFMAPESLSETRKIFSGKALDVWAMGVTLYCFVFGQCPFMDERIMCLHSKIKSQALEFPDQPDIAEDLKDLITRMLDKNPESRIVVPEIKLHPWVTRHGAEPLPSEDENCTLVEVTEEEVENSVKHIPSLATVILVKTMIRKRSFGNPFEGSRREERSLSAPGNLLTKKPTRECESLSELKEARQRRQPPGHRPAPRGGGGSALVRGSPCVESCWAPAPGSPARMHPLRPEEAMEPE
Chain of Ribosomal protein S6 kinase alpha-1 (Homo sapiens) (Q15418 whole entry, the tested form may be a part, canonical isoform): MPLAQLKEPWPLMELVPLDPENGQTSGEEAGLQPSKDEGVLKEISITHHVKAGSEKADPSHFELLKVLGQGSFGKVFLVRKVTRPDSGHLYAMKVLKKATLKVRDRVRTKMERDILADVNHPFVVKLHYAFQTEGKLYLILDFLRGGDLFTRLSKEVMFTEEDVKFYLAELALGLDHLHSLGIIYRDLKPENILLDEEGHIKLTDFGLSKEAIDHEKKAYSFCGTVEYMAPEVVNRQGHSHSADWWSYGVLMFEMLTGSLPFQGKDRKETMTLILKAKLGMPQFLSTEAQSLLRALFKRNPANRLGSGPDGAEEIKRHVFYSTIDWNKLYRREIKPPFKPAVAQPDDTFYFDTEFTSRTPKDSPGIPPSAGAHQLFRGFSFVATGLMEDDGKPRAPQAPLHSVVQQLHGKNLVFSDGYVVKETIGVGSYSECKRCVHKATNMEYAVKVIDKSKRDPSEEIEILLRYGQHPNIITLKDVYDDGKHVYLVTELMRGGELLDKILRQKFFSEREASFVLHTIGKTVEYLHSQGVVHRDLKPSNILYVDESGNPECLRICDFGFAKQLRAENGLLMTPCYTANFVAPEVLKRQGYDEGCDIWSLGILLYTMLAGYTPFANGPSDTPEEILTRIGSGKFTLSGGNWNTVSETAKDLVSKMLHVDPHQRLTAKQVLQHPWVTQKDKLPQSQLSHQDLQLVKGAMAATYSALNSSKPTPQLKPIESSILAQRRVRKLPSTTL

| Structure (SMILES) | Activity [1] [%] | Activity [2] [%] | Activity [3] [%] | Activity [4] [%] | Activity [5] [%] | Activity [6] [%] | Activity [7] [%] | IC50 [8] [µM] |
| --- | --- | --- | --- | --- | --- | --- | --- | --- |
| CCc1cc(-c2c[nH]c3ncc(-c4cnn(C5CCNCC5)c4)cc23)nc(N)n1 | -78 | -94 | -54 | -46 | -18 | -58 | -86 | – |
| CCCCc1cc(-c2c[nH]c3ncc(-c4cnn(C5CCNCC5)c4)cc23)nc(N)n1 | -91 | -92 | -69 | -63 | -42 | -86 | -88 | 5.5 |
| CCCCc1cc(-c2c[nH]c3ncccc23)nc(N)n1 | -48 | -90 | -6 | -27 | -43 | -2 | -56 | > 10 |
| Nc1nccc(-c2c[nH]c3ncccc23)n1 [MERIOLIN 1] | -22 | -95 | -11 | -45 | -35 | -31 | -82 | > 10 |
